The numbers were not newly measured in US20120309847A1, “DOSING REGIMENS AND METHODS FOR TREATING OR PREVENTING PROMYELOCYTIC LEUKEMIA” (NBI Pharmaceuticals, Inc., priority 2011, published 2012), which cites them from elsewhere.

The subject of data set [1] is APL. The note with it: ATRA combined with anthracycline based chemotherapy; cited from earlier work.
The test system of data set [2] is APL. The note with it: enocitabine 100-200 mg/m^2 continuous infusion 7 days combined with daunorubicin i.v. 3 days; cited from earlier work.

For `CC1=C(/C=C/C(C)=C/C=C/C(C)=C/C(=O)O)C(C)(C)CCC1` [ATRA, all-trans retinoic acid], the “clinical remission, share of patients” value in the data set with APL [1] is “approximately 90%”.
With `CCCCCCCCCCCCCCCCCCCCCC(=O)Nc1ccn([C@@H]2O[C@H](CO)[C@@H](O)[C@@H]2O)c(=O)n1` [enocitabine], the long-term disease-free survival with APL [2] was around 30%.
